Experimental data taken from patent publication US20260038709A1 (priority 2020, published 2026).
Read-outs that look alike come from different tables or passages of the source.

Columns and labels:
Boiling point = assay type: physicochemical
Vapor pressure = assay type: physicochemical; conditions: 20° C.
[1] = in vivo; cited from earlier work
[2] = Acute inhalation toxicity (LC50 4 h); assay type: in vivo; conditions: inhalation for 4 hours, pure gas
[3] = Acute inhalation toxicity (LC50 4 h) of mixed gas based on KS B ISO 10298: 2012; conditions: mixed gas of CF3OCFCF2 and CO2, mixing ratio mol %
Experimental: The mixed gas of the present invention may have a GWP of 1 or less, 0.9 or less, or 0.85 or less. In addition, the mixed gas of the present invention may have a GWP of 0.29 to 1, 0.29 to 0.9, or 0.29 to 0.85. […] In this case, a method for calculating GWP was based on Regulation (EU) NO 517/2014, and LC50, which represents lethal concentration 50% upon inhalation for 4 hours, was based one KS B ISO 10298: 2012.

[4] = Lower flammability limit (LFL) calculation, KS B ISO 10156: 2017 combustible gas standard; conditions: mixed gas of CF3OCFCF2 and CO2, by mixing ratio of CF3OCFCF2; calculation results
Description: Meanwhile, insulating gases used in electric devices that insulate electricity or extinguish arc are not supposed to belong to the category of combustible gases.
The calculation results of the lower flammability limit (LFL) according to the mixing ratio of the mixed gas of CF3OCFCF2 and CO2 are shown in the following table. In this case, the lower flammability limit is a concentration range in which flame propagation may take place when a combustible gas is mixed with air and ignited, expressed in volume concentration (vol %), and refers to the lowest value in this volume concentration.

[5] = Explosion limits of CF3OCFCF2 / CO2 / O2 (triangular diagram)
Description: In this case, the straight line AB may be a straight line connecting point A and point B, the straight line BC may be a straight line connecting point B and point C, the straight line CA may be a straight line connecting point C and point A, and in the point A, (x, y, z) may be (50, 0, 50), in the point B, (x, y, z) may be (5.1, 0, 94.9), and in the point C, (x, y, z) may be (8.2, 80, 11.8). Unlike the case above, when (x, y, z) is present in the triangle ABC (explosion triangle) composed of the points A, B, and C, there may be an explosion hazard due to flammability.
In FIG. 7, the explosion limits indicate the explosion limit line, and is a line connecting the explosion limit points (filled square points). On the other hand, no ignition (hollow rectangle points) indicates a non-ignition point.
In addition, point A in the triangular diagram of FIG. 7 represents upper flammability limit (UFL), and when point A is connected to point C, which is an end point on the explosion limit line, a straight line AC, which is an expected explosion limit (expected line), is formed. […] Meanwhile, the ICR line on the triangle diagram is tangent to the explosion triangle passing through 100% of O2, and the MXC value is 9.3% (C3F6O in CO2).

[6] = Reactivity test with electrodes during dielectric strength test; conditions: room temperature, 1 atm, insulation test chamber
Description: In this case, the reactivity test was to determine a reaction with electrodes upon testing dielectric strength for each mixing ratio of the insulating gases in an enclosed space where no external gas was not allowed to enter (insulation test chamber), at R.T. (room temperature), and at a standard atmospheric pressure of 1 atm. In this case, materials of a sphere electrode are CuCr and Wcu, and materials of a plane electrode are CuCr and SUS.

Structure (SMILES): N#CC(F)(C(F)(F)F)C(F)(F)F [(CF3)2CFCN, heptafluoroisobutyronitrile]
- Boiling point (Boiling point): −4.7 °C
- Vapor pressure (Vapor pressure): 36.7 psia
- Acute inhalation toxicity (LC50 4 h) [1]: 10,000-15,000 ppmv

Structure (SMILES): FC(F)=C(F)OC(F)(F)F [CF3OCFCF2, trifluoromethyl trifluorovinyl ether]
- Boiling point (Boiling point): −29 °C
- Vapor pressure (Vapor pressure): 70.3 psia
- Acute inhalation toxicity (LC50 4 h) [2]: 10,000-15,000 ppmv
- LC50 4 h [3]: 15,000 ppmv
- Lower flammability limit (LFL) [4]: 7.5 vol %
- Ignition ([5]; C3F6O 8.6, CO2 82.5, O2 8.9 mol %): No ignition confirmed at 8.6% C3F6O
- Ignition ([5]; C3F6O 8.8, CO2 85.0, O2 6.2 mol %): No ignition confirmed at 8.8% C3F6O
- MXC value ([5]; C3F6O in CO2): 9.3%
- Upper flammability limit (UFL), point A, C3F6O ([5]; CO2 0, O2 50 mol %): 50 mol %
- Explosion limit (LEL), C3F6O ([5]; CO2 0.0, O2 94.9 mol %): 5.1 mol %
- Explosion limit, C3F6O ([5]; CO2 30.0, O2 64.3 mol %): 5.7 mol %
- Explosion limit, C3F6O ([5]; CO2 50.0, O2 43.4 mol %): 6.6 mol %
- Explosion limit, C3F6O ([5]; CO2 60.0, O2 33.0 mol %): 7.0 mol %
- Explosion limit, C3F6O ([5]; CO2 70.0, O2 22.4 mol %): 7.6 mol %
- Explosion limit, C3F6O ([5]; CO2 80.0, O2 11.8 mol %, point of tangency of ICR line): 8.2 mol %
- Reaction with electrodes [6]: reacted with electrodes at atmospheric pressure to form a carbon film

Structure (SMILES): FS(F)(F)(F)(F)F [SF6]
- Boiling point (Boiling point): −63.7 °C
- Vapor pressure (Vapor pressure): 334 psia
- Acute inhalation toxicity (LC50 4 h) [2]: 100,000~ ppmv
